*1 amine or outer side, *2 acyl side, *3 side chain or, on linkers, in order; H or OH if unused. Where a SMILES comes first, the peptide text is derived from it. Side-chain parts run from the residue outwards. [ ]: non-standard residue; d: D form. The star is where a group is joined. C18 diacid = O=C(O)CCCCCCCCCCCCCCCCC(=O)*; γGlu = O=C(O)[C@H](CCC(=O)[*:2])N[*:1]; Desaminohistidyl = O=C(CCc1c[nH]cn1)*; AEEA = NCCOCCOCC(=O)O; Aib = CC(C)(N)C(=O)O
These molecules were tested against T1, human GLP-1 receptor (Homo sapiens, UniProt P43220) (assay: Assay (I)(a): GLP-1 receptor potency, CRE luciferase reporter gene assay in BHK cells). Details: BHK cells expressing human GLP-1 receptor, read-out: EC50 GLP-1R.
T1 construct: expressed in transfected cells; host or cells: membranes of BHK cells, parent line BHKTS13, clone FCW467-12A
T1 sequence (P43220 24-463): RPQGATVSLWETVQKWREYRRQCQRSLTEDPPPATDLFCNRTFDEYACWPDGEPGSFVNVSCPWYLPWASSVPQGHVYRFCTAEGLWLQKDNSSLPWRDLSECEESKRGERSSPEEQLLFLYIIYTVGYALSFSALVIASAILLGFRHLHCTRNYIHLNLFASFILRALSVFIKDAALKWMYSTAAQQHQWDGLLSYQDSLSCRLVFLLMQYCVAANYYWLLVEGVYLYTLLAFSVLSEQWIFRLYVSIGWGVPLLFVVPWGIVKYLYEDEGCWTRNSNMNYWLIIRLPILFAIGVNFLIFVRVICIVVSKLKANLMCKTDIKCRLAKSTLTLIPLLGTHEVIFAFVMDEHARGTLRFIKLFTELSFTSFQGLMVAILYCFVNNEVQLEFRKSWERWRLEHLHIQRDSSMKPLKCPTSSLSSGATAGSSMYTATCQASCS
Format: cell-based
Experimental: Assay (I): GLP-1 and Glucagon Receptor Potency The purpose of this example was to test the activity or potency, of the GLP-1 derivatives of the invention, in vitro. The in vitro potency is the measure of human GLP-1 receptor (GLP-1R) or glucagon receptor (glucagonR) activation, respectively, in a whole cell assay. In vitro potency was determined by measuring the cellular response of human GLP-1 or glucagon receptor activation, respectively, in a reporter gene assay. The assay was performed in a BHK cell line that stably expresses either the human GLP-1 receptor or the human glucagon receptor and comprises the DNA for the cAMP response element (CRE) coupled to a promoter and the gene for firefly luciferase (CRE luciferase). […] When assay incubation was completed, the luciferase substrate (luciferin) was added and the enzyme converted luciferin to oxyluciferin and produces bioluminescence. The luminescence was measured as the readout for the assay. (a) GLP-1 Receptor Activation The cells used in this assay (clone FCW467-12A/KZ10-1) were BHK cells with BHKTS13 as a parent cell line. The cells were derived from a clone (FCW467-12A) that expresses the human GLP-1 receptor and were established by further transfection with CRE luciferase to obtain the current clone. The cells were cultured at 5% CO2 in DMEM medium with 10% FBS, 1×GlutaMAX, 1 mg/ml G418, 240 nM MTX (methotrexate) and 1% pen/strep (penicillin/streptomycin). They were aliquoted and stored in liquid nitrogen. Before each assay, an aliquot was taken up and washed three times in PBS before being suspended at the desired concentration in assay medium. For 96-well plates the suspension was made to give a final concentration of 5×10EE3 cells/well. The following chemicals were used in the assay: Pluronic F-68 (10%) (Gibco 2404), Ovalbumin (Sigma A5503), DMEM w/o phenol red (Gibco 11880-028), 1 M Hepes (Gibco 15630), Glutamax 100× (Gibco 35050) and steadylite plus (PerkinElmer 6016757). Assay Medium consisted of DMEM w/o phenol red, 10 mM Hepes, 1×GlutaMAX, 2% Ovalbumin and 0.2% Pluronic F-68. Cell stocks were thawed in a 37° C. water bath. Cells were washed three times in PBS. The cells were counted and adjusted to 5×10EE3 cells/50 μl (1×10EE5 cells/ml) in Assay Medium. A 50 μl aliquot of cells was transferred to each well in the assay plate. Stocks of the test compounds and reference compounds were diluted to a concentration of […] in Assay Medium. Compounds were diluted 10-fold to give the following concentrations: 2×10EE-6 M, 2×10EE-7 M, 2×10EE-8 M; 2×10EE-9 M, 2×10EE-10 M, 2×10EE-11 M, 2×10EE-12 M and 2×10EE-13 M. For each compound a blank assay medium control was also included. A 50 μl aliquot of compound or blank was transferred from the dilution plate to the assay plate. Compounds were tested at the following final concentrations: 1×10EE-6 M, 1×10EE-7 M, 1×10EE-8 M; 1×10EE-9 M, 1×10EE-10 M, 1×10EE-11 M and 1×10EE-12 M and 1×10EE-13 M. The assay plate was incubated for 3 h in a 5% CO2 incubator at 37° C. The assay plate was removed from the incubator and allowed to stand at room temperature for 15 min. A 100 μl aliquot of steadylite plus reagent was added to each well of the assay plate (reagent is light sensitive). Each assay plate was covered with aluminum foil to protect it from light and shaken for 30 min at room temperature. Each assay plate was read in a Perkin Elmer TopCount NXT instrument. The data from the TopCount instrument was transferred to GraphPad Prism software. The software performed a non-linear regression (log(agonist) vs response-Variable slope (four parameter)). EC50 values were calculated by the software and reported in pM.

| EC50 | Compound |
| --- | --- |
| 8 pM | CC[C@H](C)[C@H](NC(=O)[C@H](Cc1ccccc1)NC(=O)[C@H](CCCCNC(=O)COCCOCCNC(=O)COCCOCCNC(=O)CC[C@H](NC(=O)CC[C@H](NC(=O)CC[C@H](NC(=O)CCCCCCCCCCCCCCCCC(=O)O)C(=O)O)C(=O)O)C(=O)O)NC(=O)[C@H](CCCNC(=N)N)NC(=O)[C@H](C)NC(=O)[C@H](C)NC(=O)[C@H](CCC(N)=O)NC(=O)[C@H](CCC(=O)O)NC(=O)[C@H](CCC(=O)O)NC(=O)[C@H](CC(C)C)NC(=O)[C@H](Cc1ccc(O)cc1)NC(=O)[C@H](CCCNC(=N)N)NC(=O)[C@H](CO)NC(=O)[C@@H](NC(=O)[C@H](CC(=O)O)NC(=O)[C@H](CO)NC(=O)[C@@H](NC(=O)[C@H](Cc1ccccc1)NC(=O)[C@@H](NC(=O)CNC(=O)[C@H](Cc1c[nH]cn1)NC(=O)[C@H](C)NC(=O)CCc1c[nH]cn1)[C@@H](C)O)[C@@H](C)O)C(C)C)C(=O)N[C@@H](C)C(=O)N[C@@H](Cc1c[nH]c2ccccc12)C(=O)N[C@@H](CC(C)C)C(=O)N[C@@H](CC(C)C)C(=O)N[C@@H](CCCNC(=N)N)C(=O)O [Example 18, N^ε27-[2-[2-[2-[[2-[2-[2-[[(4S)-4-carboxy-4-[[(4S)-4-carboxy-4-[[(4S)-4-carboxy-4-(17-carboxyheptadecanoylamino)butanoyl]amino]butanoyl]amino]butanoyl]amino]ethoxy]ethoxy]acetyl]amino]ethoxy]ethoxy]acetyl]-[Imp7,His9,Arg18,Glu22,Arg26,Lys27,Leu33,Arg34]-GLP-1-(7-34)-peptide] (Desaminohistidyl-AHGTFTSDVSRYLEEQAARK([AEEA-AEEA-γGlu-γGlu-γGlu-C18 diacid])FIAWLLR-OH) |
| 3 pM | CC[C@H](C)[C@H](NC(=O)[C@H](Cc1ccccc1)NC(=O)[C@H](CCC(=O)O)NC(=O)[C@H](CCCNC(=N)N)NC(=O)[C@H](C)NC(=O)[C@H](C)NC(=O)[C@H](CCC(N)=O)NC(=O)[C@H](C)NC(=O)[C@H](CCC(=O)O)NC(=O)[C@H](CC(C)C)NC(=O)[C@H](Cc1ccc(O)cc1)NC(=O)[C@H](CCCCN)NC(=O)[C@H](CO)NC(=O)[C@@H](NC(=O)[C@H](CC(=O)O)NC(=O)[C@H](CO)NC(=O)[C@@H](NC(=O)[C@H](Cc1ccccc1)NC(=O)[C@@H](NC(=O)CNC(=O)[C@H](Cc1c[nH]cn1)NC(=O)C(C)(C)NC(=O)CCc1c[nH]cn1)[C@@H](C)O)[C@@H](C)O)C(C)C)C(=O)N[C@@H](C)C(=O)N[C@@H](Cc1c[nH]c2ccccc12)C(=O)N[C@@H](CC(C)C)C(=O)N[C@@H](CC(C)C)C(=O)N[C@@H](CCCCNC(=O)CC[C@H](NC(=O)CC[C@H](NC(=O)COCCOCCNC(=O)CC[C@H](NC(=O)CC[C@H](NC(=O)CCCCCCCCCCCCCCCCC(=O)O)C(=O)O)C(=O)O)C(=O)O)C(=O)O)C(=O)N[C@H](C(N)=O)[C@@H](C)O [Example 34, N^ε34-[(4S)-4-carboxy-4-[[(4S)-4-carboxy-4-[[2-[2-[2-[[(4S)-4-carboxy-4-[[(4S)-4-carboxy-4-(17-carboxyheptadecanoylamino)butanoyl]amino]butanoyl]amino]ethoxy]ethoxy]acetyl]amino]butanoyl]amino]butanoyl]-[Imp7,Aib8,His9,Lys18,Ala22,Arg26,Leu33,Thr35]-GLP-1-(7-35)-peptide amide] (Desaminohistidyl-[Aib]HGTFTSDVSKYLEAQAAREFIAWLLK([γGlu-γGlu-AEEA-γGlu-γGlu-C18 diacid])T-NH2) |
| 6 pM | CC[C@H](C)[C@H](NC(=O)[C@H](Cc1ccccc1)NC(=O)[C@H](CCC(=O)O)NC(=O)[C@H](CCCNC(=N)N)NC(=O)[C@H](C)NC(=O)[C@H](C)NC(=O)[C@H](CCCNC(=N)N)NC(=O)CNC(=O)[C@H](CCC(=O)O)NC(=O)[C@H](CC(C)C)NC(=O)[C@H](Cc1ccc(O)cc1)NC(=O)[C@H](CCCNC(=N)N)NC(=O)[C@H](CO)NC(=O)[C@@H](NC(=O)[C@H](CC(=O)O)NC(=O)[C@H](CO)NC(=O)[C@@H](NC(=O)[C@H](Cc1ccccc1)NC(=O)[C@@H](NC(=O)CNC(=O)[C@H](Cc1c[nH]cn1)NC(=O)C(C)(C)NC(=O)CCc1c[nH]cn1)[C@@H](C)O)[C@@H](C)O)C(C)C)C(=O)N[C@@H](C)C(=O)N[C@@H](Cc1c[nH]c2ccccc12)C(=O)N[C@@H](CC(C)C)C(=O)N[C@@H](CC(C)C)C(=O)N[C@@H](CCCCNC(=O)CC[C@H](NC(=O)CC[C@H](NC(=O)COCCOCCNC(=O)CC[C@H](NC(=O)CC[C@H](NC(=O)CCCCCCCCCCCCCCCCC(=O)O)C(=O)O)C(=O)O)C(=O)O)C(=O)O)C(=O)NCC(=O)N[C@@H](CO)C(=O)NCC(=O)O [Example 36, N^ε34-[(4S)-4-carboxy-4-[[(4S)-4-carboxy-4-[[2-[2-[2-[[(4S)-4-carboxy-4-[[(4S)-4-carboxy-4-(17-carboxyheptadecanoylamino)butanoyl]amino]butanoyl]amino]ethoxy]ethoxy]acetyl]amino]butanoyl]amino]butanoyl]-[Imp7,Aib8,His9,Arg18,Arg23,Arg26,Leu33,Ser36]-GLP-1-(7-37)-peptide] (Desaminohistidyl-[Aib]HGTFTSDVSRYLEGRAAREFIAWLLK([γGlu-γGlu-AEEA-γGlu-γGlu-C18 diacid])GSG-OH) |

From patent publication US9988430B2, “Stable GLP-1 based GLP-1/glucagon receptor co-agonists” (Novo Nordisk A/S, priority 2014, dated 2018)
